Source: patent US20240116946A1 (Gilead Sciences, Inc., priority 2022, published 2024)
Read-outs that look alike come from different tables or passages of the source.

What was measured:
[1] = molecular target: recombinant SARS-CoV-2 Main protease (Mpro) (Severe acute respiratory syndrome coronavirus 2 (2019-nCoV) (SARS-CoV-2), UniProt P0DTD1); experiment: Cov Mpro Biochemical IC50 Assay; details: read-out: MPro IC50
SARS-CoV-2-NLuc = experiment: microbe, parasite or virus in culture; format: cell-based, SARS Coronavirus 2
[2] = recombinant SARS-CoV-2 Mpro, fluorogenic peptide substrate
[3] = Severe acute respiratory syndrome coronavirus, 48 h, read-out: MPro EC50
[4] = recombinant SARS-CoV-2 Mpro 7.5 nM, fluorogenic peptide substrate 40 μM
[5] = Severe acute respiratory syndrome coronavirus, 48 h; read-out: MPro EC50

SMILES | IC50 [1, 2] [nM] | EC50 (SARS-CoV-2-NLuc; [3]) [nM] | IC50 [1, 4] [nM] | EC50 (SARS-CoV-2-NLuc; read-out: MPro EC50) [nM] | EC50 (SARS-CoV-2-NLuc; [5]) [nM]
Cc1ccc(Cl)c(-c2ccc3c(=O)n(-c4cncc5ccccc45)c(=O)[nH]c3c2)c1 [Example 252] | 151 | 321 |  |  | 
NS(=O)(=O)c1cccc(-c2cccc(Cl)c2-c2ccc3c(=O)n(-c4cncc5ccccc45)c(=O)[nH]c3c2)c1 [Example 270] | 13.9 | 85.3 |  |  | 
COc1ccc(Cl)c(-c2cc3[nH]c(=O)n(-c4cncc5cn(CC(F)(F)F)nc45)c(=O)c3s2)c1 [Example 502] |  | 34.8 | < 2.54 |  | 
Cn1ncc2cncc(-n3c(=O)c4sc(-c5cc(F)c(F)cc5Cl)cc4n(CCC#N)c3=O)c21 (single isomer, unassigned) [Example 1076, 3-[6-(2-chloro-4,5-difluoro-phenyl)-3-(1-methylpyrazolo[4,3-c]pyridin-7-yl)-2,4-dioxo-thieno[3,2-d]pyrimidin-1-yl]propanenitrile] |  |  | 3.64 | 10.9 | 
O=c1[nH]c2cc(-c3ccsc3Cl)ccc2c(=O)n1-c1cncc2ccccc12 [Example 84] | 604 | 1030 |  |  | 
Cc1cc(-c2cc3[nH]c(=O)n(-c4cncc5ccccc45)c(=O)c3s2)c(Cl)cc1F [Example 350] | 17.2 | 49.2 |  |  | 
O=c1[nH]c2cc(-c3cccc4c3CCC4)ccc2c(=O)n1-c1cncc2ccccc12 [Example 171, 7-(2,3-dihydro-1H-inden-4-yl)-3-(isoquinolin-4-yl)quinazoline-2,4(1H,3H)-dione] | 3790 | 4200 |  |  | 
COc1cc(-c2cc3c(s2)c(=O)n(-c2cncc4cnn(C)c24)c(=O)n3CCC#N)c(C)cc1F [Example 665] |  | 10.5 | 7.27 |  | 
COc1cc(-c2cc3c(s2)c(=O)n(-c2cncc4c(C)nn(C)c24)c(=O)n3CCC#N)c(Cl)cc1F [Example 979, 3-(6-(2-chloro-4-fluoro-5-methoxyphenyl)-3-(1,3-dimethyl-1H-pyrazolo[4,3-c]pyridin-7-yl)-2,4-dioxo-3,4-dihydrothieno[3,2-d]pyrimidin-1(2H)-yl)propanenitrile] |  | 3.07 | 3.71 |  | 
COc1ccc(C#N)c(-c2cc3[nH]c(=O)n(-c4cncc5c4OCCC5)c(=O)c3s2)c1 [Example 587] |  | 117 | 27.9 |  | 
COc1nn(C)cc1-c1cccc(Cl)c1-c1ccc2c(=O)n(-c3cncc4ccccc34)c(=O)[nH]c2c1 [Example 273] | 14.9 | 6.41 |  |  | 
COc1cc(-c2cc3c(s2)c(=O)n(-c2cncc4cnn(C)c24)c(=O)n3CCC#N)c(C#N)cc1F [Example 999, 2-(1-(2-cyanoethyl)-3-(1-methyl-1H-pyrazolo[4,3-c]pyridin-7-yl)-2,4-dioxo-1,2,3,4-tetrahydrothieno[3,2-d]pyrimidin-6-yl)-5-fluoro-4-methoxybenzonitrile] |  |  | 7.15 |  | 15.7
COc1cc(-c2cc3c(s2)c(=O)n(-c2cncc4ncc(C)n24)c(=O)n3CCC#N)c(Cl)cc1F [Example 952] |  | 16.2 | 10.9 |  | 
COCCn1ncc2cncc(-n3c(=O)[nH]c4cc(-c5cc(OC)c(F)cc5Cl)sc4c3=O)c21 [Example 733] |  | 25.8 | 15.2 |  | 
N#CCCn1c(=O)n(-c2cncc3nnn(C4CC4)c23)c(=O)c2sc(-c3ccc(F)cc3Cl)cc21 [Example 883] |  | 233 | 30.3 |  | 
COc1cc(-c2cc3[nH]c(=O)n(-c4cncc(Cl)c4Cl)c(=O)c3s2)c(Cl)cc1F [Example 742] |  | 26.2 | 15.2 |  | 
CCCOc1ccc(Cl)c(-c2ccc3c(=O)n(-c4cncc5ccccc45)c(=O)[nH]c3c2)c1 [Example 249] | 269 | 110 |  |  | 
Cc1cc(-c2cccc(Cl)c2-c2ccc3c(=O)n(-c4cncc5ccccc45)c(=O)[nH]c3c2)ccc1C(N)=O [Example 244] | 18.1 | 41 |  |  | 
O=c1[nH]c2nc(-c3ccccc3)ccc2c(=O)n1-c1cncc2ccccc12 [Example 31] | 14800 |  |  |  | > 50000
O=c1[nH]c2cc(-c3ccsc3Cl)sc2c(=O)n1-c1cncc2ccccc12 [Example 21] | 32.5 | 204 |  |  | 
CN(C)C(=O)c1cccc(-c2cccc(Cl)c2-c2ccc3c(=O)n(-c4cncc5ccccc45)c(=O)[nH]c3c2)c1 [Example 188] | 121 | 59.4 |  |  | 

SMILES | IC50 [1, 2] [nM] | EC50 (SARS-CoV-2-NLuc; [3]) [nM] | IC50 [1, 4] [nM] | EC50 (SARS-CoV-2-NLuc; read-out: MPro EC50) [nM] | EC50 (SARS-CoV-2-NLuc; [5]) [nM]
COc1cc(-c2cc3[nH]c(=O)n(-c4cncc(Cl)c4C)c(=O)c3s2)c(Cl)cc1F [Example 743, 6-(2-chloro-4-fluoro-5-methoxy-phenyl)-3-(5-chloro-4-methyl-3-pyridyl)-1H-thieno[3,2-d]pyrimidine-2,4-dione] |  |  | 12.1 |  | 16.3
O=c1[nH]c2cc(-c3c(Cl)cccc3CC3CCOCC3)sc2c(=O)n1-c1cncc2ccccc12 [Example 561, 6-[2-chloro-6-(tetrahydropyran-4-ylmethyl)phenyl]-3-(4-isoquinolyl)-1H-thieno[3,2-d]pyrimidine-2,4-dione] |  | 177 | 142 |  | 
Cn1ncc2cncc(-n3c(=O)c4sc(-c5cc(Cl)ccc5Cl)cc4n(CCC#N)c3=O)c21 [Example 793] |  | 5.02 | 6.63 |  | 
Cn1ncc2c(-n3c(=O)[nH]c4cc(-c5ccccc5Cl)sc4c3=O)cncc21 [Example 491] |  | 64.3 | 17.3 |  | 
Cc1nn(C2CCN(C(=O)OC(C)(C)C)CC2)cc1-c1cccc(Cl)c1-c1ccc2c(=O)n(-c3cncc4ccccc34)c(=O)[nH]c2c1 [Example 266, tert-butyl 4-[4-[3-chloro-2-[3-(4-isoquinolyl)-2,4-dioxo-1H-quinazolin-7-yl]phenyl]-3-methyl-pyrazol-1-yl]piperidine-1-carboxylate] | 36.4 | 95.1 |  |  | 
O=c1[nH]c2cc(-c3ccccc3OCc3ccccc3)sc2c(=O)n1-c1cncc2ccccc12 [Example 18] | 2930 | 208 |  |  | 
COc1ccc(Cl)c(-c2cc3[nH]c(=O)n(-c4cncc5ccc(N6CC7C(C6)C7(F)F)cc45)c(=O)c3s2)c1 (stereo not shown) [Example 232] | 17.6 | 34.9 |  |  | 
O=c1[nH]c2cc(-c3ccccc3Cl)sc2c(=O)n1-c1cncc2ccc(N3CC4(C3)CS(=O)(=O)C4)cc12 [Example 395] |  | 80.7 | 7.25 |  | 
Cc1cc(F)cc(Cl)c1-c1cc2[nH]c(=O)n(-c3cncc4ccccc34)c(=O)c2s1 [Example 720] |  | 100 | 110 |  | 
COc1cc(-c2cc3c(s2)c(=O)n(-c2cnc(F)c(C)c2)c(=O)n3CCC#N)c(C#N)cc1F [Example 780] |  | 53.3 | 17.4 |  | 
COc1cc(-c2cc3c(s2)c(=O)n(-c2cncc(F)c2C)c(=O)n3CCC#N)c(Cl)cc1F (single isomer, unassigned) [Example 1027, 3-[6-(2-chloro-4-fluoro-5-methoxy-phenyl)-3-(5-fluoro-4-methyl-3-pyridyl)-2,4-dioxo-thieno[3,2-d]pyrimidin-1-yl]propanenitrile] |  |  | 61.9 | 66.1 | 
O=c1[nH]c2cc(-c3ccccc3Cl)sc2c(=O)n1-c1cnccc1C1CCOCC1 [Example 138] | 16.2 | 144 |  |  | 
COc1cc(-c2cc3[nH]c(=O)n(-c4cncc5c4c(C)cn5C)c(=O)c3s2)c(Cl)cc1F [Example 706] |  | 6.53 | 5.93 |  | 
COc1ccc(C#N)c(-c2cc3[nH]c(=O)n(-c4cncc5ccccc45)c(=O)c3s2)c1 (single isomer, unassigned) [Example 555, 2-(3-(isoquinolin-4-yl)-2,4-dioxo-1,2,3,4-tetrahydrothieno[3,2-d]pyrimidin-6-yl)-4-methoxybenzonitrile] |  |  | 21.5 | 79.6 | 
COc1cc(-c2cc3[nH]c(=O)n(-c4cc(C)cnn4)c(=O)c3s2)c(Cl)cc1F [Example 746] |  | 54.3 | 4.17 |  | 
CO[C@H]1CCN(c2ccc3cncc(-n4c(=O)[nH]c5cc(-c6ccccc6Cl)sc5c4=O)c3c2)C1 [Example 398] |  | 18.7 | 3.38 |  | 
COc1cccc(-c2ccc3c(=O)n(-c4cncc5ccccc45)c(=O)[nH]c3c2)c1Cl [Example 295] | 7430 | 13500 |  |  | 
Cc1nn(C)cc1-c1cc2[nH]c(=O)n(-c3cncc(C4CC4)c3)c(=O)c2s1 [Example 366] | 36800 |  |  |  | 32200
COc1cc(-c2cc3c(s2)c(=O)n(-c2cncc4cnn(C)c24)c(=O)n3CCC#N)c(Cl)cc1Cl [Example 1017, 3-[6-(2,4-dichloro-5-methoxy-phenyl)-3-(1-methylpyrazolo[4,3-c]pyridin-7-yl)-2,4-dioxo-thieno[3,2-d]pyrimidin-1-yl]propanenitrile] |  |  | 5.92 |  | 5.25
O=C(C1CC1)N1CCN(c2ccc3cncc(-n4c(=O)[nH]c5cc(-c6ccccc6Cl)sc5c4=O)c3c2)CC1 [Example 423] |  | 53.7 | 6.5 |  | 
